# Source: US20230331803A1, “CO-AGONISTS OF THE GLP-1 AND AMYLIN RECEPTORS” (priority 2020, published 2023)
# “Also recorded” adds a separate entry of the source. Read-outs that look alike come from different tables or passages of the source. Starred links: 1 amine or outer side, 2 acyl side, 3 side chain; linkers in the order of their positions; H or OH if unused. Non-standard residues stand in square brackets, D forms with d. Groups on a side chain read outwards from the residue. *: point of attachment. Butyryl(4-SO2NHCO(CH2)16Tz) = O=C(CCCCCCCCCCCCCCCCc1nnn[nH]1)NS(=O)(=O)CCCC(=O)*; Decanoyl(10-O(3-COOH-Ph)) = O=C(O)c1cccc(OCCCCCCCCCC(=O)*)c1; C20 diacid = O=C(O)CCCCCCCCCCCCCCCCCCC(=O)*; C18 diacid = O=C(O)CCCCCCCCCCCCCCCCC(=O)*; C16 diacid = O=C(O)CCCCCCCCCCCCCCC(=O)*; γGlu = O=C(O)[C@H](CCC(=O)[*:2])N[*:1]; Desaminohistidyl = O=C(CCc1c[nH]cn1)*; εLys = N[C@@H](CCCCN[*:1])C(=O)[*:2]; Trx = NC[C@H]1CC[C@H](C(=O)O)CC1; AEEA = NCCOCCOCC(=O)O; Aib = CC(C)(N)C(=O)O
# How the values were obtained:
# [1] = target: T1, human amylin receptor (hAmyR3) (Homo sapiens, UniProt O60896+P30988); assay: Human amylin receptor in vitro potency assay (CRE-luciferase reporter, BHK cells); assay type: cell-based; conditions: for EC50: read-out: Human AmyR3 potency [EC50 (pM)]; for Ability to agonise the amylin receptor, in words: Tables 4a-4c;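 for all read-outs here: BHK cells expressing human calcitonin receptor plus RAMP3 (amylin-3 receptor) with a CRE-luciferase reporter, agonist activity read as luminescence from cAMP-driven transcription, 7-point serial dilutions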
# T1 construct: host or cells: BHK cells (Hollex-1 line: human calcitonin receptor (a) + CRE-Luc), further transfected with human RAMP3
# Description: Activation of hAmyR3 leads to increased cellular concentrations of cAMP. Consequently, transcription is activated by promotors containing multiple copies of the cAMP response element (CRE). It is thus possible to measure hAmyR3 activity using a CRE-luciferase reporter gene introduced into Baby Hamster Kidney (BHK) cells co-expressing the hAmyR3.
# The cell line was further transfected with human receptor modifying protein 3 (RAMP3) using standard methods. This turns the human calcitonin receptor into a human amylin-3(a) receptor.
# (§1) Cells were aliquoted and stored at -180° C. until use.
# The plate was incubated over night at 37° C. in 5% CO2. On the day of the assay, cells were washed three times in assay buffer. Serial dilutions (7-fold dilutions, 7 concentrations pr. compound and one well containing only assay buffer) of comparator compounds and GLP-1 receptor-amylin receptor co-agonists were performed in assay buffer often starting from approximately 10-100 nM in 96-well plates and 30 µL of each concentration added to the 384-well assay plate with cells. […] The assay plate was sealed, incubated at room temperature with gentle shaking for 5 minutes followed by 30 minutes incubation without shaking while protected from light. Luminescence was detected on a luminescence plate reader e.g. a Synergy 2 (BioTek).
# [2] = test system: Sprague Dawley (SD) rats; assay: Acute food intake in ad libitum fed rats after a single subcutaneous administration; assay type: in vivo, rat; conditions: for Food intake relative to vehicle (%) 0-24 hr, 10 nmol/kg / Food intake relative to vehicle (%) 24-48 hr, 10 nmol/kg: rat, single administration; for Inhibition of food intake, in words: rats, 10 nmol/kg;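 for all read-outs here: food intake monitored in the HM2 system, three rats per cage kept on a reversed light cycle, with food and water freely available after the subcutaneous dose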
# Description: Sprague Dawley (SD) rats from Taconic Europe, Denmark were used for the acute food intake experiments, wherein the principles of laboratory animal care were followed.
# The rats arrived at least 10-14 days before the start of the experiment to allow acclimatisation to experimental settings. During this period, the animals were handled at least 2 times. Immediately upon arrival, rats were put on a reversed light cycle (dark from 11am - 11pm) and put in the HM2 system and ID chipped. Three rats were housed in each cage. […] The rats were dosed once according to body weight with a 0.01-3 mg/kg solution administered subcutaneously (sc). The time of dosing was recorded for each group.
# After dosing, the rats were returned to their home cages, where they had access to food and water. […] At the end of the experimental session, the animals were euthanised.
# [3] = target: T2, human GLP-1 receptor (Homo sapiens, UniProt P43220); assay: Human GLP-1 receptor in vitro potency assay (CRE-luciferase reporter, BHK cells); assay type: cell-based
# T2 construct: expressed in transfected cells; host or cells: BHK (Baby Hamster Kidney) cells, clone BHK 467-12A KZ-10, stably transfected, with CRE-luciferase reporter
# Description: It is thus possible to measure GLP-1 receptor activity using a CRE-luciferase reporter gene introduced into Baby Hamster Kidney (BHK) cells co-expressing the GLP-1 receptor.
# as §1
# Plates were sealed and incubated at room temperature with gentle shaking for 30 minutes while protected from light. Luminescence was detected on a luminescence plate reader e.g. a Synergy 2 (BioTek).
# [4] = Pharmacokinetic studies in Beagle dogs after oral administration of SNAC-based tablets; assay type: in vivo; conditions: for Tmax / half-life: male, Beagle
# Description: To be able to evaluate oral exposure following tablet dosing, tablet compositions comprising the test substance and SNAC (sodium N-(8-(2-hydroxybenzoyl)amino)caprylate) were prepared by mixing test substance with roller compacted SNAC and magnesium stearate as, e.g., described in WO 2019/149880. The amount of SNAC in the tablet composition was 100-300 mg, the amount of magnesium stearate in the tablet composition was 7.7 mg, and the target amount of each test substance in the tablet composition was 3-4 mg.
# Pharmacokinetic (PK) studies in Beagle dogs were conducted to determine the exposure of the GLP-1 receptor-amylin receptor co-agonist after peroral administration.
# For the pharmacokinetic studies male Beagle dogs were used, 2-7, or 1 to 5, years of age and weighing approximately 10-15, such as 10-12, kg at the start of the studies. The dogs were group housed in pens (12 hours light: 12 hours dark),and fed individually and restrictedly once daily with Royal Canin Medium Adult dog (Royal Canin Products, China Branch, or Brogaarden A/S, Denmark). Exercise and group social were permitted daily, whenever possible. The dogs were used for repeated pharmacokinetic studies with a suitable wash-out period between successive dosing. An appropriate acclimatisation period was given prior to initiation of the first pharmacokinetic study. All handling, dosing and blood sampling of the animals were performed by trained and skilled staff. Before the studies the dogs were fasted overnight and from 0 to 4 h after dosing. Besides, the dogs were restricted to water 1 hour before dosing until 4 hours after dosing, but otherwise have ad libitum access to water during the whole period.
# The tablets used for the p.o. studies described herein were immediate release SNAC-based tablets dosed orally.
# The tablets were administered in the following manner: 10 min prior to tablet administration the dogs may be dosed subcutaneously with approximately 3 nmol/kg of SEQ ID NO: 237, tablets were placed in the back of the mouth of the dog to prevent chewing. The mouth was then closed, and 10 mL of tap water was given by a syringe or gavage to facilitate swallowing of the tablet.
# Blood was sampled at predefined time points for up till 240 hours, such as up till 10 hr, post dosing to adequately cover the full plasma concentration-time absorption profile of the GLP-1 agonist.
# For each blood sampling time point approximately 0.8 mL of whole blood was collected in a 1.5 mL EDTA coated tube, and the tube was gently turned to allowing mixing of the sample with the EDTA. Blood samples (for example 0.8 mL) were collected in EDTA buffer (8 mM) and then centrifuged at 4° C. and 2000 G for 10 minutes. Plasma was pipetted into Micronic tubes on dry ice, and kept at -20° C. until analysis.
# Blood samples were taken as appropriate, for example from a venflon in the cephalic vein in the front leg for the first 2 hours and then with syringe from the jugular vein for the rest of the time points (the first few drops were allowed to drain from the venflon to avoid heparin saline from the venflon in the sample).
# Plasma concentration of the GLP-1 receptor-amylin receptor co-agonists were determined using LCMS. Individual plasma concentration-time profiles were analysed by a non-compartmental model in WinNonlin v. 5.0 or Phoenix v. 6.2 or 6.3 (Pharsight Inc., Mountain View, CA, USA), or other relevant software for PK analysis.
# The individual plasma concentration-time profiles were analysed by non-compartmental analysis (NCA).
# [5] = Table 4a, BHK hAmyR3/CRE-Luc cells, 3 hours
# [6] = Table 4a, BHK cells expressing human GLP-1R, CRE-Luc, 3 hours, read-out: Human GLP-1R potency [EC50 (pM)]
# [7] = dogs, oral administration (tablet)
# [8] = Table 4c, further comparator compounds
# T2 sequence (P43220 24-463): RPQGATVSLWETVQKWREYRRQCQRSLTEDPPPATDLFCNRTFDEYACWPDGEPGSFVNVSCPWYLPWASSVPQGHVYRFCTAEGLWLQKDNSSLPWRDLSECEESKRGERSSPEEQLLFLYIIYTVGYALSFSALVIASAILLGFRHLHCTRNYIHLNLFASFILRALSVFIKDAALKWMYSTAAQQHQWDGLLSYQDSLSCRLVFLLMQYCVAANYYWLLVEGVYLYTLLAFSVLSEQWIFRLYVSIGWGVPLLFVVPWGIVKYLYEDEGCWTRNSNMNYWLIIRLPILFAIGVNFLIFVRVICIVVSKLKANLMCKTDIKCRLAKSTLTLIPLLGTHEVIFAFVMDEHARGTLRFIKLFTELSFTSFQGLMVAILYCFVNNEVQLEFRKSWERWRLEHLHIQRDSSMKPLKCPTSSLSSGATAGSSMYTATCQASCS
# T1 sequence (P30988 25-474): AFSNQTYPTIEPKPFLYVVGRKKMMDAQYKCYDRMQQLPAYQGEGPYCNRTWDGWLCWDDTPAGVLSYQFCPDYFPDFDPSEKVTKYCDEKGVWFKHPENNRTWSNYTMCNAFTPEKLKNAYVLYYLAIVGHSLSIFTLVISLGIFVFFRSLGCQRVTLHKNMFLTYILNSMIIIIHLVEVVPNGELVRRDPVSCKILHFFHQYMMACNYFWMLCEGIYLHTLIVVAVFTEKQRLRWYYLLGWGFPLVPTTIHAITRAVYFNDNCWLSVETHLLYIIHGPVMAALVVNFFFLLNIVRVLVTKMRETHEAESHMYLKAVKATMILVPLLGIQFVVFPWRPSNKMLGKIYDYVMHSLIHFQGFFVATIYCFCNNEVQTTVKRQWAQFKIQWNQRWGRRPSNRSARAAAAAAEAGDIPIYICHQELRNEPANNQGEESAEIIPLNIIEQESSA
# T1 sequence (O60896 24-148): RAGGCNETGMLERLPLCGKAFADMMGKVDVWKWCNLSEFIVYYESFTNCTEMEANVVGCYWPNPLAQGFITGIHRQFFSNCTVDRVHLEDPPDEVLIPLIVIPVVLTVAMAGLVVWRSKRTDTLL
Substance,"EC50 [1, 5] [pM]","EC50 [3, 6] [pM]","Food intake relative to vehicle (%) 0-24 hr, 10 nmol/kg ([2]; Table 6a) [%]","Food intake relative to vehicle (%) 24-48 hr, 10 nmol/kg ([2]; Table 6a) [%]",also measured
Desaminohistidyl-AEGTFTSDVSSYLEEQAAREFIAWLVRGRK([AEEA-AEEA-γGlu-Trx-C20 diacid])EASELSTAALGRLSAELHELATLPRTETGSGSP-NH2 [Compound 0035],16,16.7,76,95,–
H-H[Aib]EGTFTSDVSSYLEEK([AEEA-AEEA-γGlu-C16 diacid])AAREFIAWLVRGRGGGGGEASELSTAALGRLSAELHELATLPRTETGK([AEEA-AEEA-γGlu-C16 diacid])GSP-NH2 [Compound 0411],45.9,3.5,81,88,–
H-H[Aib]EGTFTSDVSSYLEEQAAREFIAWLVRGK([AEEA-AEEA-γGlu-Decanoyl(10-O(3-COOH-Ph))])K([AEEA-AEEA-γGlu-Decanoyl(10-O(3-COOH-Ph))])GGGGASELSTAALGRLSAELHELATLPRTETGSGSP-NH2 [Compound 0235],24,10.4,–,–,"AUC/D [4, 7]: 3.3 kg·h/L; Cmax/D [4, 7]: 0.22 kg/L; Tmax ([4]; dog, plasma, po, dogs, oral administration (tablet), read-out: Tmax): 1 h; half-life ([4]; dog, plasma, po, dogs, oral administration (tablet), read-out: T½ (converted)): 21 h"
H-H[Aib]EGTFTSDVSSYLEEQAAREFIAWLVRGRK(Butyryl(4-SO2NHCO(CH2)16Tz))EASELSTAALGRLSAELHELATLPRTETGSGSP-NH2 [Compound 0103],11.6,28.1,80,80,–
H-H[Aib]EGTFTSDVSSYLEEQAAREFIAWLVRGRK([AEEA-AEEA-γGlu-Trx-C20 diacid])GGEASELSTAALGRLSAELHELATLPRTETGSGSP-NH2 [Compound 0512],10.8,7.6,–,–,"AUC/D ([4]; dog, in vivo, po): 3.21 kg·h/L; Cmax/D ([4]; dog, in vivo, po): 0.13 kg/L; Tmax ([4]; dog, in vivo, po, Tmax (hr)): 2 h; half-life ([4]; dog, in vivo, po, T½ (hr)): 21 h"
"H-H[Aib]EGTFTSDVSSYLEEQAAREFIAWLVRGRK([AEEA-AEEA-γGlu-Trx-C20 diacid])GGGGEASELSTAALGRPSAELHELATLPRTETGSGSP-NH2 [Comparator compound 0192, reference compound]",–,–,–,–,"EC50 [1, 8]: ≥ 10000 pM; Ability to agonise the amylin receptor, in words [1]: impaired their ability to agonise (activate) the amylin receptor; also recorded: impaired amylin activity; Food intake relative to vehicle (%) 0-24 hr, 10 nmol/kg ([2]; Table 6b): 71%; Food intake relative to vehicle (%) 24-48 hr, 10 nmol/kg ([2]; Table 6b): 67%; Inhibition of food intake, in words [2]: significantly less than in the case of compound 0120"
"H-H[Aib]EGTFTSDVSSYLEEQAAREIFAWLVRGRK([AEEA-AEEA-γGlu-Trx-C20 diacid])GGGGEASELSTAALGRLSAELHELATLPRTETGSGSP-NH2 [Comparator compound 0167, reference compound]",–,–,–,–,"EC50 [1, 8]: 10.9 pM; Ability to agonise the amylin receptor, in words [1]: full amylin potency; Food intake relative to vehicle (%) 0-24 hr, 10 nmol/kg ([2]; Table 6b): 85%; Food intake relative to vehicle (%) 24-48 hr, 10 nmol/kg ([2]; Table 6b): 73%; Inhibition of food intake, in words [2]: significantly less than in the case of compound 0120; EC50 [3, 8]: ≥ 10000 pM; Ability to agonise the GLP-1 receptor, in words ([3]; Tables 4a-4c): impaired their ability to agonise (activate) the GLP-1 receptor; also recorded: impaired GLP-1 activity"
H-H[Aib]EGTFTSDVSSYLEGQAAK([AEEA-AEEA-γGlu-C18 diacid])EFIAWLVRGRGGGGGGGGGEASELSTAALGRLSAELHELATLPRTETGSGSP-NH2 [Compound 0052],19.4,17,42,86,–
H-H[Aib]EGTFTSDVSSYLEGQAAKEFIAWLVRGRK([AEEA-AEEA-γGlu-C18 diacid])GGEASELSTAALGRLSAELHELATLPRTETGSGSP-NH2 [Compound 0042],10.8,16.2,52,101,–
H-H[Aib]EGTFTSDVSSYLEGQAAREFIAWLVRGRGQEPK([AEEA-AEEA-γGlu-C20 diacid])GQAPEASELSTAALGRLSAELHELATLPRTETGSGSP-NH2 [Compound 0529],14.1,6.4,–,–,"AUC/D ([4]; dog, in vivo, po): 19.71 kg·h/L; Cmax/D ([4]; dog, in vivo, po): 0.3 kg/L; Tmax ([4]; dog, in vivo, po, Tmax (hr)): 4 h; half-life ([4]; dog, in vivo, po, T½ (hr)): 68 h"
H-H[Aib]EGTFTSDVSSYLEGQAAREFIAWLVRGRGQEPK([AEEA-AEEA-γGlu-Trx-C20 diacid])GQAPEASELSTAALGRLSAELHELATLPRTETGSGSP-NH2 [Compound 0539],12.1,5,–,–,"AUC/D ([4]; dog, in vivo, po): 8.71 kg·h/L; Cmax/D ([4]; dog, in vivo, po): 0.22 kg/L; Tmax ([4]; dog, in vivo, po, Tmax (hr)): 3 h; half-life ([4]; dog, in vivo, po, T½ (hr)): 30 h"

# More lines, in order of falling EC50 [1, 5], values ahead:
"EC50 [1, 5] [pM]","EC50 [3, 6] [pM]",Substance,"Food intake relative to vehicle (%) 0-24 hr, 10 nmol/kg ([2]; Table 6a) [%]","Food intake relative to vehicle (%) 24-48 hr, 10 nmol/kg ([2]; Table 6a) [%]",also measured
9.5,10.4,H-H[Aib]EGTFTSDVSSYLEGQAAREFIAWLVRGRK([AEEA-AEEA-γGlu-C18 diacid])GGGGEASELSTAALGRLSAELHELATLPRTETGSGSP-NH2 [Compound 0151],29,70,–
9.4,13.3,H-H[Aib]EGTFTSDVSSYLEGQAAK([AEEA-AEEA-γGlu-C18 diacid])EFIAWLVRGRGGGEASELSTAALGRLSAELHELATLPRTETGSGSP-NH2 [Compound 0007],67,105,–
9.3,7.4,H-H[Aib]EGTFTSDVSSYLEEQAARK([AEEA-AEEA-γGlu-C20 diacid])FIAWLVRGGASELSTAALGRLSAELHELATLPRTETGSGSP-NH2 [Compound 0580],–,–,"AUC/D ([4]; dog, in vivo, po): 12.77 kg·h/L; Cmax/D ([4]; dog, in vivo, po): 0.38 kg/L; Tmax ([4]; dog, in vivo, po, Tmax (hr)): 2 h; half-life ([4]; dog, in vivo, po, T½ (hr)): 39 h"
9.1,16,H-H[Aib]EGTFTSDVSSYLEGQAAK([εLys-AEEA-AEEA-γGlu-C18 diacid])EFIAWLVRGRGGGEASELSTAALGRLSAELHELATLPRTETGSGSP-NH2 [Compound 0044],40,82,–
7.7,6.5,H-H[Aib]EGTFTSDVSSYLEEQAAREFIEWLVRGRK([AEEA-AEEA-γGlu-Trx-C20 diacid])GGGGEASELSTAALGRLSAELHELATLPRTETGSGSP-NH2 [Compound 0503],–,–,"AUC/D ([4]; dog, in vivo, po): 8.72 kg·h/L; Cmax/D ([4]; dog, in vivo, po): 0.14 kg/L; Tmax ([4]; dog, in vivo, po, Tmax (hr)): 4 h; half-life ([4]; dog, in vivo, po, T½ (hr)): 41 h"
6.6,7.4,H-H[Aib]EGTFTSDVSSYLEGQAAK([AEEA-AEEA-γGlu-Trx-C20 diacid])EFIAWLVRGRGGGGGGGGGEASELSTAALGRLSAELHELATLPRTETGSGSP-NH2 [Compound 0095],55,95,–
6.2,6.4,H-H[Aib]EGTFTSDVSK([AEEA-AEEA-γGlu-C20 diacid])YLEEQAAREFIAWLVRGRGGGGGEASELSTAALGRLSAELHELATLPRTETGSGSP-NH2 [Compound 0565],39,42,–
